pIC50: −log10 of the molar value.
Molecular target: T1, human CARM1 (PRMT4) (Flag- and His-tagged) (Homo sapiens, UniProt Q86X55)
T1 construct: Flag-CARM1-His; made in house; host or cells: HEK 293F cells (BacMam baculovirus)
T1 sequence (Q86X55 1-585 isoform Q86X55-1): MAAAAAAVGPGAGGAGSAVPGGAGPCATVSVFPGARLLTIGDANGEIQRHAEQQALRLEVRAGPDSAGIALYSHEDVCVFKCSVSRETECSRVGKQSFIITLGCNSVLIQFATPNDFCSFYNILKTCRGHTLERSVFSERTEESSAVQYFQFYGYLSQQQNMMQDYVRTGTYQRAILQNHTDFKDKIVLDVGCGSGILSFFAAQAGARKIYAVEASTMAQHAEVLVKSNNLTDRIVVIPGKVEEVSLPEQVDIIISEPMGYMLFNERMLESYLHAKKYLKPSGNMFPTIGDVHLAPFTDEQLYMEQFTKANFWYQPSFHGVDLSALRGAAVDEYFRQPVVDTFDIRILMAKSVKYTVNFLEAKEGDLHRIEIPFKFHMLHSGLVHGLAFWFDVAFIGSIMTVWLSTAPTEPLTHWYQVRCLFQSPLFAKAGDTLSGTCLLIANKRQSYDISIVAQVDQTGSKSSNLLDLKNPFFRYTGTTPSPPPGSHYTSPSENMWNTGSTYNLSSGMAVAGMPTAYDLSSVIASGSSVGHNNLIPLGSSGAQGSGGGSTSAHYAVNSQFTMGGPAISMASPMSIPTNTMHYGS
Assay: CARM1 Biochemical Assay (3H-SAM Flashplate, peptide substrate)
Conditions: single experiment or average of multiple experiments
From the text: General Materials. S-adenosylmethionine (SAM), S-adenosylhomocysteine (SAH), bicine, Tween20, dimethylsulfoxide (DMSO), bovine skin gelatin (BSG), sodium butyrate and Tris(2-carboxyethyl)phosphine hydrochloride solution (TCEP) were purchased from Sigma-Aldrich at the highest level of purity possible. ^3H-SAM was purchase from American Radiolabeled Chemicals with a specific activity of 80 Ci/mmol. 384-well streptavidin Flashplates were purchased from PerkinElmer.
Substrates. Peptide representative of human histone H3 residues 16-30 was synthesized with an N-terminal linker-affinity tag motif and a C-terminal amide cap by 21st Century Biochemicals. The peptide was purified by high-performance liquid chromatography (HPLC) to greater than 95% purity and confirmed by liquid chromatography mass spectrometry (LC-MS). The sequence was Biot-Ahx-[…]-amide and contained a monomethylated arginine at position 26 (SEQ ID NO.:14).
Molecular Biology: Human CARM1 (PRMT4) (NM_199141.1) transcript clone was amplified from an HEK 293 cDNA library, incorporating a flanking 5′ sequence encoding a FLAG tag ([…]) (SEQ ID NO.:6) fused directly to Ala 2 of CARM1 and 3′ sequence encoding a hexa His sequence ([…]) (SEQ ID NO.:15) fused directly to Ser 608. The gene sequence encoding isoform1 containing a deletion of amino acids 539-561 was amplified subsequently and subcloned into pFastBacMam (Viva Biotech).
Protein Expression. Recombinant baculovirus were generated according to Bac-to-Bac kit instructions (Life Technologies). […] Infections were carried out at 37° C. for 48 hours, harvested by centrifugation, and stored at −80° C. for purification.
Protein Purification. […] Column was washed with 500 mM NaCl in buffer A and Flag-CARM1-His was eluted with 200 ug/ml FLAG peptide in buffer A. Pooled fractions were dialyzed in 20 mM Tris, 150 mM NaCl, 5% glycerol and 1 mM DTT, pH 7.8. The purity of recovered protein was 94.
General Procedure for CARM1 Enzyme Assays on Peptide Substrates. The assays were all performed in a buffer consisting of 20 mM Bicine (pH=7.6), 1 mM TCEP, 0.005% BSG, and 0.002% Tween 20, prepared on the day of use. Compounds in 100% DMSO (1 ul) were spotted into a polypropylene 384-well V-bottom plates (Greiner) using a Platemate Plus outfitted with a 384-channel head (Thermo Scientific). DMSO (1 ul) was added to Columns 11, 12, 23, 24, rows A-H for the maximum signal control and 1 ul of SAH, a known product and inhibitor of CARM1, was added to columns 11, 12, 23, 24, rows I-P for the minimum signal control. A cocktail (40 ul) containing the CARM1 enzyme was added by Multidrop Combi (Thermo-Fisher). The compounds were allowed to incubate with CARM1 for 30 min at room temperature, then a cocktail (10 ul) containing ^3H-SAM and peptide was added to initiate the reaction (final volume=51 ul). The final concentrations of the components were as follows: CARM1 was 0.25 nM, ^3H-SAM was 30 nM, peptide was 250 nM, SAH in the minimum signal control wells was 1 mM, and the DMSO concentration was 2%. The assays were stopped by the addition of non-radiolabeled SAM (10 ul) to a final concentration of 300 uM, which dilutes the ^3H-SAM to a level where its incorporation into the peptide substrate is no longer detectable. 50 ul of the reaction in the 384-well polypropylene plate was then transferred to a 384-well Flashplate and the biotinylated peptides were allowed to bind to the streptavidin surface for at least 1 hour before being washed once with 0.1% Tween20 in a Biotek ELx405 plate washer. The plates were then read in a PerkinElmer TopCount plate reader to measure the quantity of ^3H-labeled peptide bound to the Flashplate surface, measured as disintegrations per minute (dpm) or alternatively, referred to as counts per minute (cpm).
Where dpm=disintegrations per minute, cmpd=signal in assay well, and min and max are the respective minimum and maximum signal controls. […]

CNCCN(C)Cc1c[nH]nc1C#Cc1ccccc1 [Compound 3]
pIC50: 5.91
